According to patent US20260317344A1, “EGFR INHIBITORS FOR TREATING DISEASE” (BLOSSOMHILL THERAPEUTICS, INC., priority 2023, published 2026):

Assays:
[1] = tested on: BaF3 cells with engineered EGFR L858R/T790M/C797S; test: 3-Day CellTiter Glo (CTG) cell proliferation assay, BaF3 EGFR L858R/T790M/C797S; type: cell-based; settings: Mus musculus, 3-day CTG proliferation, 72 hours
Protocol: (§1) 3-DAY CellTiter Glo (CTG) Cell Proliferation Assays (BaF3 Cell Lines)
(§2) Cell proliferation assays were carried out in BaF3 cells engineered with EGFR mutations. BaF3 cells with engineered EGFR L858R/T790M/C797S, EGFR L858R/C797S, or EGFR d746-750/T790M transgene, one thousand cells/50 μL per well were seeded in white 384-well plate, followed by treatment with indicated compounds in a 9-dose dilution series using TECAN d300e liquid dispenser. Cells were incubated with compounds for 72 hours at 37° C. and 5% CO2. Cell proliferation was measured using CellTiter-Gbo 2.0 luciferase-based ATP detection assay (Promega, Madison, WI) at 18 μL per well following the manufacturer's protocol. Plates were then read on a TECAN Sparks multimode microplate reader. Data was analyzed using GraphPad Prism 9 (GraphiPad Software, San Diego, CA) to obtain IC50 values.

[2] = tested on: HCC827 cells; test: 5-Day CellTiter Glo (CTG) cell proliferation assay, HCC827; type: cell-based; settings: Homo sapiens; HCC827 cells (d746-750 EGFR), 5-day CTG proliferation, 120 hours; read-out: HCC827 IC50
Outline: (§3)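 Proliferation of EGFR-driven NSCLC cells was scored as CellTiter-Glo 2.0 luminescence after a 5-day (120 h) incubation with compounds in 9 doses. IC50 values came from the dose-response curves.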

[3] = tested on: NCI-H1975 cells; test: 5-Day CellTiter Glo (CTG) cell proliferation assay, NCI-H1975; type: cell-based; settings: Homo sapiens; NCI-H1975 cells (L858R/T790M EGFR), 5-day CTG proliferation, 120 hours; read-out: H1975 IC50
Outline: as §3

[4] = molecular target: EGFR (D770_N771insNPG) (Homo sapiens, UniProt P00533, INS770NPG); test: HotSpot radiometric kinase assay, inhibition of EGFR (D770_N771insNPG) mutant; type: biochemical; settings: 33P ATP, room temperature, 120 m
Protocol: (§4) Biochemical Assays for inhibition of wild-type and mutant EGFRs
(§5) Briefly, specific kinase/substrate pairs along with required cofactors were prepared in reaction buffer; 20 mM HEPES pH 7.5, 10 mM […], 1 mM EGTA, 0.02% Brij35, 0.02 mg/ml BSA, 0.1 mM Na3VO4, 2 mM DTT, 1% DMSO. Compounds were delivered into the reaction, followed ~20 minutes later by addition of a mixture of ATP (Sigma, St. Louis MO) and ^33P ATP (Perkin Elmer, Waltham MA) to a final concentration of […]. Reactions were carried out at room temperature for 120 m, followed by spotting of the reactions onto P81 ion exchange filter paper (Whatman Inc., Piscataway, NJ). Unbound phosphate was removed by extensive washing of filters in 0.75% phosphoric acid. […] IC50 values and curve fits were obtained using Prism (GraphPad Software).

[5] = molecular target: EGFR (L858R/T790M/C797S) (Homo sapiens, UniProt P00533, C797S/L858R/T790M); test: HotSpot radiometric kinase assay, inhibition of EGFR L858R/T790M/C797S mutant; type: biochemical; settings: 33P ATP, room temperature, 120 m
Protocol: as §4, §5

[6] = tested on: BaF3 cells with engineered EGFR L858R/C797S; test: 3-Day CellTiter Glo (CTG) cell proliferation assay, BaF3 EGFR L858R/C797S; type: cell-based; settings: Mus musculus, 3-day CTG proliferation, 72 hours
Protocol: as §1, §2

[7] = molecular target: EGFR (D746-750/C797S) (Homo sapiens, UniProt P00533, C797S/DEL746-750); test: HotSpot radiometric kinase assay, inhibition of EGFR 746-750/C797S mutant; type: biochemical; settings: 33P ATP, room temperature, 120 m
Protocol: as §4, §5

[8] = molecular target: T1, pEGFR, NCI-H1975 cells (L858R/T790M EGFR) (Homo sapiens, UniProt P00533, L858R/T790M); test: Cellular EGFR phosphorylation assay (LANCE Ultra TR-FRET) in NCI-H1975 cells; type: cell-based; settings: 4 hours at 37° C., read-out: H1975 pEGFR IC50
T1 construct: pEGFR (Tyr1068) TR-FRET
Protocol: (§6) Cellular EGFR Phosphorylation Assays
(§7) EGFR phosphorylation assays were conducted in NSCLC cells with EGFR activation mutations. PC-9 cells (purchased from Aldrich-Sigma) carry a Glu746-Ala750 deletion (d746-750) mutation in exon 19 of the EGFR gene and NCI-H1975 cells (purchased from ATCC) carry both L858R activation mutation and T790M gatekeeper mutation in the EGFR gene. A431 cells (purchased from ATCC) with amplification of wildtype EGFR, derived from epidermoid carcinoma, were used to measure the activity against wildtype EGFR. All cells were seeded in 96-well plates. For PC-9 and NCI-H1975 cells, 50 thousand cells were seeded per well. For A431 cells, 30 thousand cells were seeded per well. The next day, cells were exposed to compound for 4 hours at 37° C. and 5% CO2. Compounds were diluted in DMSO and added to cells in a 9-dose, 3-fold dilution, titration curve using TECAN d300e liquid dispenser. For A431 cells, 40 ng/mL of EGF was added to the media for the final 10 minutes of incubation. EGFR phosphorylation was measured using phospho-EGFR (Try1068) LANCE Ultra TR-FRET Detection Kit (TRF4015M) from PerkinElmer according to manufacturer's instructions. In brief, cells were lysed with 40 μL of lysis buffer plus 1× Halt protease and phosphatase inhibitor cocktail (Thermo 78441) and by incubation at room temperature for 1 h on a microplate shaker (350 rpm). 15 μ L of cell lysate was transferred to 384-well white plate and 5 μL of Europium- and ULight-labeled antibodies diluted in 1× detection buffer was added to each well. After 4-6 hours of incubation at room temperature, plates were then read on a TECAN Sparks multimode microplate reader. Data was analyzed using GraphPad Prism 9 (GraphPad Software, San Diego, CA) to obtain IC50 values.

[9] = molecular target: T2, pEGFR, A431 cells (wildtype EGFR) (Homo sapiens, UniProt P00533); test: Cellular EGFR phosphorylation assay (LANCE Ultra TR-FRET) in A431 cells; type: cell-based; settings: 4 hours at 37° C., 40 ng/mL EGF for the final 10 minutes, read-out: A431 pEGFR IC50
T2 construct: pEGFR (Tyr1068) TR-FRET
Protocol: as §6, §7

[10] = molecular target: T3, pEGFR, PC-9 cells (d746-750 EGFR) (Homo sapiens, UniProt P00533, DEL746-750); test: Cellular EGFR phosphorylation assay (LANCE Ultra TR-FRET) in PC-9 cells; type: cell-based; settings: 4 hours at 37° C., read-out: PC-9 pEGFR IC50
T3 construct: pEGFR (Tyr1068) TR-FRET
Protocol: as §6, §7

[11] = tested on: PC-9 cells; test: 5-Day CellTiter Glo (CTG) cell proliferation assay, PC-9; type: cell-based; settings: Homo sapiens; PC-9 cells (d746-750 EGFR), 5-day CTG proliferation, 120 hours; read-out: PC-9 IC50
Outline: as §3

[12] = molecular target: EGFR (D746-750) (Homo sapiens, UniProt P00533, DEL746-750); test: HotSpot radiometric kinase assay, inhibition of EGFR 746-750 mutant; type: biochemical; settings: 33P ATP, room temperature, 120 m
Protocol: as §4, §5

[13] = tested on: BaF3 cells with engineered EGFR d746-750/T790M; test: 3-Day CellTiter Glo (CTG) cell proliferation assay, BaF3 EGFR d746-750/T790M; type: cell-based; settings: Mus musculus; BaF3 EGFR d746-750/T790M cells, 3-day CTG proliferation, 72 hours
Protocol: as §1, §2

T3 sequence (P00533 with tags, fused parts or gaps DEL746-750): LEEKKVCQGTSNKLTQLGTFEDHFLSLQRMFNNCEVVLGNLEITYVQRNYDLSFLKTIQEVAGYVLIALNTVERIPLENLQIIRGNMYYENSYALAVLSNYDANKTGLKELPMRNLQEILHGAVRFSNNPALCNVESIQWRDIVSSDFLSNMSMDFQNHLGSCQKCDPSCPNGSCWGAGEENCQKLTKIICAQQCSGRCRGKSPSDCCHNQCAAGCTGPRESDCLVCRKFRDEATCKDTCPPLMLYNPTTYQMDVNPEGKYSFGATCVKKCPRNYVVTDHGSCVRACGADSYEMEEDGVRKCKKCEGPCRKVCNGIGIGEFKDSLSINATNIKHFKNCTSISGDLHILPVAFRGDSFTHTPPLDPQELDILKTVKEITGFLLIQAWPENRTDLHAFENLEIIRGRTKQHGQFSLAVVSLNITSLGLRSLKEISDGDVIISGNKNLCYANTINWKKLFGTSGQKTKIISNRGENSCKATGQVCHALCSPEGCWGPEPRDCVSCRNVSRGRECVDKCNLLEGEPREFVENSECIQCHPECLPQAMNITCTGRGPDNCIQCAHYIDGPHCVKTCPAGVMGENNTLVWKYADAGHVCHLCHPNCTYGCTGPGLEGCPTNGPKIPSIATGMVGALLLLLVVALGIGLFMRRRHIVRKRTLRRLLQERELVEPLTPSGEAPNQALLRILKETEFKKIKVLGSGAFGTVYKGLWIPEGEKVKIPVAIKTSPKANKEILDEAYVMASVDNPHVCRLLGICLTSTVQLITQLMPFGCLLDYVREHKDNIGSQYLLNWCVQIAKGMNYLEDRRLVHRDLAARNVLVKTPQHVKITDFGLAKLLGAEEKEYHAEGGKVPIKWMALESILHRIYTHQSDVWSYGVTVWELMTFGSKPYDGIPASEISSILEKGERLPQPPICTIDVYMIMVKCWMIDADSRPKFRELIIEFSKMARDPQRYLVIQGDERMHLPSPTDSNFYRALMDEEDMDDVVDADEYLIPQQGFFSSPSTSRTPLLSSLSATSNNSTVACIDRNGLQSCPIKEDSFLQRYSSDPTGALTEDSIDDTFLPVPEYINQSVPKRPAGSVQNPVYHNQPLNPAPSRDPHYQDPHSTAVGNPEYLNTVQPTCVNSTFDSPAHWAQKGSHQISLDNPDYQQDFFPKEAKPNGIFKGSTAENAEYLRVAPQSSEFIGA
Chain of EGFR (D746-750) (P00533 with tags, fused parts or gaps DEL746-750): as above
Chain of EGFR (D770_N771insNPG) (P00533 with tags, fused parts or gaps INS770NPG limits assumed): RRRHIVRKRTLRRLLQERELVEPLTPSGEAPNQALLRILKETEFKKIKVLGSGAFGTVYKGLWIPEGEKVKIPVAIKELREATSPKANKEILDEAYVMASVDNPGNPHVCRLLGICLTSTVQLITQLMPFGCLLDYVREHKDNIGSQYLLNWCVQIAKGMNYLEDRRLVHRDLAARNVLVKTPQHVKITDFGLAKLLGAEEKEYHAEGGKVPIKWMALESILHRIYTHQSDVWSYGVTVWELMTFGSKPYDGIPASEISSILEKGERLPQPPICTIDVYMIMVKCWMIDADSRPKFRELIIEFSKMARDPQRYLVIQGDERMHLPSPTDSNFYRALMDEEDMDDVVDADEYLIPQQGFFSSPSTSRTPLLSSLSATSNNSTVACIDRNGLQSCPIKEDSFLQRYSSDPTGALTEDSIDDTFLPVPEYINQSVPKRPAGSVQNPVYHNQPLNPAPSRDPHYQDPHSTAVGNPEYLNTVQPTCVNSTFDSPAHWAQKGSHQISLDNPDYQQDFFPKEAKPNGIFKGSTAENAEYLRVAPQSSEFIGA
T1 sequence (P00533 25-1210 T790M/L858R): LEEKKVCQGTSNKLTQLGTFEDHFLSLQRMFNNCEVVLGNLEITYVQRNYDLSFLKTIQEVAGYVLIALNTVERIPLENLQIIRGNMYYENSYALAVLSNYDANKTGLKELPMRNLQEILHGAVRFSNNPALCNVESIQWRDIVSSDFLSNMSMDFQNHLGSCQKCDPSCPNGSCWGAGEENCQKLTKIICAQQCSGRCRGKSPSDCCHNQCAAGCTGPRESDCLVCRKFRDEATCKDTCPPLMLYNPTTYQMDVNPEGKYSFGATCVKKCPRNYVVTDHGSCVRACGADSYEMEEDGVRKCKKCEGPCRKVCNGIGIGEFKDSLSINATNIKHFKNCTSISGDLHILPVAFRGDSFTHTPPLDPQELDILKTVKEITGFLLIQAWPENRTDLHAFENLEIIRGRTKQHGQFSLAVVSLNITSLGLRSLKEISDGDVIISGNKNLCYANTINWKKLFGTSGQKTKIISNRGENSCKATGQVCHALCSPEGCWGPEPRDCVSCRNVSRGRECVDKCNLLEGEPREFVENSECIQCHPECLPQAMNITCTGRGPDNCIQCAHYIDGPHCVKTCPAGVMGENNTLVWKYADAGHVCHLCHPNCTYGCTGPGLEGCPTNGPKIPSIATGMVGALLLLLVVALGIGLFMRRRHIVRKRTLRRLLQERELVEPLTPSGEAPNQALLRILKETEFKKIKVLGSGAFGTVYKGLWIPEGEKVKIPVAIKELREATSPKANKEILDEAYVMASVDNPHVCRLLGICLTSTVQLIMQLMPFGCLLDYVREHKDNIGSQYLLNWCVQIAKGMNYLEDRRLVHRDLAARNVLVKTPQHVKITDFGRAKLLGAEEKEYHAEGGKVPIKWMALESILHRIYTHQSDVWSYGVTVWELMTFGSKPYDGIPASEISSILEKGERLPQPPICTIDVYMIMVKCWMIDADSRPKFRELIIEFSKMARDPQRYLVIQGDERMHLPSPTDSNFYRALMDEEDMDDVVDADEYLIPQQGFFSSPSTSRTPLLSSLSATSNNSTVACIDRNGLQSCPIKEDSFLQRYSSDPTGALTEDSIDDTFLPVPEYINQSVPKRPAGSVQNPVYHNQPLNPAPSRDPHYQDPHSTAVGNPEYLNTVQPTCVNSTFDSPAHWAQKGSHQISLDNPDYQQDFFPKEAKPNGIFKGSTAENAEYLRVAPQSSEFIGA

## CC(C)Oc1nn(CCO)c2c1/C=C/c1n[nH]c3cnc(cc13)-c1cnn(C)c1OC[C@H](C)N(C(C)C)C2 [Ex. 4, 2-[(11S,17E)-8,11-dimethyl-12-(propan-2-yl)-16-[(propan-2-yl)oxy]-2,8,10,11,12,13-hexahydro-14H-5,3-(azenometheno)tripyrazolo[3,4-f:3′,4′-j:4″,3″-n][1,4]oxazacyclopentadecin-14-yl]ethan-1-ol]
[1]
  IC50: 2.81 nM
[2]
  IC50: 6.03 nM
[3]
  IC50: 74.9 nM
[4]
  IC50: 3.07 nM
[5]
  IC50: 1.36 nM
[6]
  IC50: 2.6 nM
[7]
  IC50: 1.44 nM
[8]
  IC50: 17.7 nM
[9]
  IC50: 442 nM
[10]
  IC50: 789 nM
[11]
  IC50: 115 nM
[12]
  IC50: 0.59 nM

## Cc1nn(C)c2c1-c1cc3c(n[nH]c3cn1)/C=C/c1c(OCC#N)nn(CCO)c1CN(C)[C@@H](C)CO2 [Ex. 31]
[1]
  IC50: 25.9 nM
[2]
  IC50: 11.6 nM
[3]
  IC50: 358 nM
[4]
  IC50: 2.23 nM
[5]
  IC50: 0.29 nM
[6]
  IC50: 3.72 nM
[7]
  IC50: 0.78 nM
[8]
  IC50: 41.6 nM
[9]
  IC50: 119 nM
[10]
  IC50: 65.1 nM
[11]
  IC50: 226 nM
[12]
  IC50: 0.27 nM

## CCOc1nn([C@@H](C)CO)c2c1/C=C/c1n[nH]c3cnc(cc13)-c1c(C)nn(C)c1O[C@@H](C)CN(C(C)=O)C2 [Ex. 112, 1-[(10S,17E)-16-ethoxy-14-[(2S)-1-hydroxypropan-2-yl]-6,8,10-trimethyl-2,8,10,11,13,14-hexahydro-12H-5,3-(azenometheno)tripyrazolo[3,4-f:3′,4′-j:4″,3″-n][1,4]oxazacyclopentadecin-12-yl]ethan-1-one]
[1]
  IC50: 97.7 nM
[13]
  IC50: 396 nM
[6]
  IC50: 29.5 nM

## CCN1Cc2c(c(OCC#N)nn2[C@@H](C)CO)/C=C/c2n[nH]c3cnc(cc23)-c2c(C)nn(C)c2O[C@@H](C)C1 [Ex. 67, {[(10S,17E)-12-ethyl-14-[(2S)-1-hydroxypropan-2-yl]-6,8,10-trimethyl-2,10,11,12,13,14-hexahydro-8H-5,3-(azenometheno)tripyrazolo[3,4-f:3′,4′-j:4″,3″-n][1,4]oxazacyclopentadecin-16-yl]oxy}acetonitrile]
[2]
  IC50: 1.13 nM
[3]
  IC50: 17.6 nM
[4]
  IC50: 0.69 nM
[5]
  IC50: 1.08 nM
[7]
  IC50: 1.65 nM
[8]
  IC50: 5.54 nM
[9]
  IC50: 16 nM
[10]
  IC50: 2.98 nM
[11]
  IC50: 1.81 nM
[12]
  IC50: 0.56 nM
